Laboratory results taken from patent publication US20170166598A1, “HETEROARYL COMPOUNDS FOR KINASE INHIBITION” (ARIAD PHARMACEUTICALS, INC., priority 2014, published 2017).

How the values were obtained:
Assay type in all cases: cell-based
[1] = molecular target: T1, human EGFR E746-A750 deletion and T790M Mutation (Homo sapiens, UniProt P00533, DEL746-750/T790M); assay: Ba/F3-EGFR-Del/T790M cell anti-proliferative assay (CellTiter 96 MTS, 72 h); conditions: Ba/F3-EGFR-Del/T790M cells
T1 construct: expressed in transfected cells; host or cells: Ba/F3 (murine pro-B) cells transduced with lentivirus from pLVX-IRES puro
Procedure, shortened: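 Compound exposure: 72 h, 37 °C, 4-fold series topping at 10,000 nM. Target cells are Ba/F3 transduced with EGFR exon 19 deletion plus T790M, selected by puromycin and IL-3 withdrawal. Viable cell number inferred from MTS metabolic conversion, A490 read 2 h after reagent addition.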

[2] = molecular target: T2, Her2 exon 20 YVMA insertion (A775_G776ins YVMA) (Homo sapiens, UniProt P04626, INS775YVMA); assay: Ba/F3-Her2 Exon20 YVMA cell anti-proliferative assay (CellTiter 96 MTS, 72 h); conditions: Ba/F3-Her2 Exon20 YVMA cells
T2 construct: expressed in transfected cells; host or cells: Ba/F3 (murine pro-B) cells transduced with lentivirus from pLVX-IRES puro
Procedure, shortened: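 Anti-proliferation: compound series (top 10,000 nM, 4-fold steps) was applied to Ba/F3-Her2 Exon20 YVMA cells grown without IL-3 for 72 h. Viability was read colorimetrically (CellTiter 96 Aqueous One, A490, 2 h reagent incubation).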

[3] = molecular target: T3, human EGFR exon 20 insertion ASV (V769_D770insASV) (Homo sapiens, UniProt P00533, INS769ASV); assay: Ba/F3-EGFR-Exon20-ASV cell anti-proliferative assay (CellTiter 96 MTS, 72 h); conditions: Ba/F3-EGFR-Exon20-ASV cells
T3 construct: expressed in transfected cells; host or cells: Ba/F3 (murine pro-B) cells transduced with lentivirus from pLVX-IRES puro
Procedure: An expression vector, pLVX-IRES puro (Clontech) coding for human EGFR exon 20 insertions NPG (H773_V774insNPG) or ASV (V769_D770insASV), was transfected into HEK293 cells by the Trans-Lentiviral ORF Packaging System (Thermo Scientific), to produce virus encoding EGFR exon 20 insertions. Ba/F3 (DSMZ) cells maintained in RPMI 1640 medium supplemented with 10% fetal bovine serum, 200 μM L-glutamine/l 200 μg/mL penicillin/200 μg/mL streptomycin (Life Technology) and 10 ng/mL IL-3 (R&D system), were infected by EGFR Exon20 virus and subsequently selected by puromycin (Life Technology) selection and IL-3 depletion. […] The anti-proliferative activity of compounds were determined as follows: BaF3-EGFR-Exon20 cells (NPG or ASV) seeded in 96 well plates (2500 cells/well) were treated with test compound (dissolved in DMSO) at a series of concentrations (4-fold dilution, top concentration: 10,000 nM). The plates were incubated for 72 h in a 37° C. incubator with 5% CO2, and the number of viable cells in each well were measured indirectly by CellTiter 96® Aqueous One Solution Cell Proliferation Assay (Promega) This assay is a colorimetric method for determining the number of viable cells through measurement of their metabolic activity by detection of enzymatic conversion of tetrazolium salts into blue formazan derivatives. Reagent (20 μL) was added into each well, and the plates were returned to the incubator for 2 h. The absorbance in each well was then measured at 490 nm using an Envision plate reader (Perkin Elmer).

[4] = molecular target: T4, human EGFR exon 20 insertion NPG (H773_V774insNPG) (Homo sapiens, UniProt P00533, INS772GNP); assay: Ba/F3-EGFR-Exon20-NPG cell anti-proliferative assay (CellTiter 96 MTS, 72 h); conditions: Ba/F3-EGFR-Exon20-NPG cells
T4 construct: expressed in transfected cells; host or cells: Ba/F3 (murine pro-B) cells transduced with lentivirus from pLVX-IRES puro
Procedure, shortened: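 Viable-cell readout used absorbance at 490 nm of MTS-derived formazan, 2 h after reagent addition, following 72 h compound treatment at 37 °C, 5% CO2. Cells: puromycin-selected, IL-3-depleted Ba/F3 expressing EGFR exon 20 ASV or NPG; dosing 4-fold series from 10,000 nM.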

T1 sequence (P00533 with tags, fused parts or gaps DEL746-750/T790M): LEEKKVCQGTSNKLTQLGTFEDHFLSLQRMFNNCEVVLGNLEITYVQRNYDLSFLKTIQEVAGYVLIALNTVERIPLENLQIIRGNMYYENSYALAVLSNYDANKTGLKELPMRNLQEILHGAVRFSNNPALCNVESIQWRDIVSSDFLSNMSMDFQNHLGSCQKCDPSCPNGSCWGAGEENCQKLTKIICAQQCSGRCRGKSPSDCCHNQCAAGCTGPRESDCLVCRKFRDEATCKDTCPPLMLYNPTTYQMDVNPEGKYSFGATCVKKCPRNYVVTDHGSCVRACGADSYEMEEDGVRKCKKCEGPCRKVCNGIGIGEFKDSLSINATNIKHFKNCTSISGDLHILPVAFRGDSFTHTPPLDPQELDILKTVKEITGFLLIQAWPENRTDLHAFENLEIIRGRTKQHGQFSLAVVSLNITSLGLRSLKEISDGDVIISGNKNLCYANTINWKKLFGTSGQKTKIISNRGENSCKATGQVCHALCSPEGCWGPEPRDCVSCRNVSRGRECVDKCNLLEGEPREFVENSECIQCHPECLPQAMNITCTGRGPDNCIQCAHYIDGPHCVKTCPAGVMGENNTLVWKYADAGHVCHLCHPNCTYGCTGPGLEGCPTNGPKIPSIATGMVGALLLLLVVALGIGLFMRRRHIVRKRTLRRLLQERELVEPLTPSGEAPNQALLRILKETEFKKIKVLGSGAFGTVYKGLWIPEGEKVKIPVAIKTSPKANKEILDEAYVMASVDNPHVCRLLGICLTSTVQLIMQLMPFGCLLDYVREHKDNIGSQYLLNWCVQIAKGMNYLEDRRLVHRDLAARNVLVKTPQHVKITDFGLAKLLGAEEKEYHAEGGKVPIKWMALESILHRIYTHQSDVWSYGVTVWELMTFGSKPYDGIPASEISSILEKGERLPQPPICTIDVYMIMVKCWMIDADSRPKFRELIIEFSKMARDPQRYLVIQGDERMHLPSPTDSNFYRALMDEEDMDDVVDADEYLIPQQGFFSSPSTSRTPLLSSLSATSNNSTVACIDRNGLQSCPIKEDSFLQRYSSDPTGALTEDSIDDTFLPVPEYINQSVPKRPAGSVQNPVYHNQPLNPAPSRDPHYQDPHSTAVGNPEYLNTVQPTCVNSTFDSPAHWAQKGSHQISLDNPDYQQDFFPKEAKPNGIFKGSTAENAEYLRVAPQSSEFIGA
T2 sequence (P04626 with tags, fused parts or gaps INS775YVMA): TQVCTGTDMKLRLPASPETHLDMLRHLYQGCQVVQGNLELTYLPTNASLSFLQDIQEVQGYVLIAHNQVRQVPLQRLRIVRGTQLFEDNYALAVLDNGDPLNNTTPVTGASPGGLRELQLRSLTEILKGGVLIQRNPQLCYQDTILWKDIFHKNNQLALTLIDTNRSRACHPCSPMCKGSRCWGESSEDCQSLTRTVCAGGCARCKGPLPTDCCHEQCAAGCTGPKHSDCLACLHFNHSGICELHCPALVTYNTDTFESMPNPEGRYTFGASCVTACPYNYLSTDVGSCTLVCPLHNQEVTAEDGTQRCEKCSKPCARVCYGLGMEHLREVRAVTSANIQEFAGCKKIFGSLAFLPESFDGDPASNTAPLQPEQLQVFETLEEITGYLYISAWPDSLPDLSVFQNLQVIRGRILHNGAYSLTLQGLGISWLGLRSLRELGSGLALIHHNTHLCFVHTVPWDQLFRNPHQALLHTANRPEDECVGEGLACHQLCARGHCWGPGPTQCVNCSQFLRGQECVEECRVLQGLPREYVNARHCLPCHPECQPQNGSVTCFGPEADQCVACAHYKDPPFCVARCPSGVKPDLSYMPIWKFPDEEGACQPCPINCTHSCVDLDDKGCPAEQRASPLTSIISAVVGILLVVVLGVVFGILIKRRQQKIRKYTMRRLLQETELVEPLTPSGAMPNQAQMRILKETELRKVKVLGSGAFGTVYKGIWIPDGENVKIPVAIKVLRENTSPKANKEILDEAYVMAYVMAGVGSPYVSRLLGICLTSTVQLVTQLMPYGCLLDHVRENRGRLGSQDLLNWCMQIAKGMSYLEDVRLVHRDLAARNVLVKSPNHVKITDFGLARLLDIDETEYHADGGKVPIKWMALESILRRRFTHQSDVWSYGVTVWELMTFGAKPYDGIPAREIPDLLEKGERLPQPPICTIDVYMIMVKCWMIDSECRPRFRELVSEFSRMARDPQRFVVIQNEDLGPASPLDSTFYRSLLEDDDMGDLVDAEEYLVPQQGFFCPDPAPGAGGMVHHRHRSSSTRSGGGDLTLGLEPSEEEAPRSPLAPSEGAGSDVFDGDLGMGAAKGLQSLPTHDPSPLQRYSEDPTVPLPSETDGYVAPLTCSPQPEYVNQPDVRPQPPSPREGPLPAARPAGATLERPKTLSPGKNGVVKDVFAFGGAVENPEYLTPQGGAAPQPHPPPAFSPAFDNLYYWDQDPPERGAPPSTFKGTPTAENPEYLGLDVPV
T4 sequence (P00533 with tags, fused parts or gaps INS772GNP): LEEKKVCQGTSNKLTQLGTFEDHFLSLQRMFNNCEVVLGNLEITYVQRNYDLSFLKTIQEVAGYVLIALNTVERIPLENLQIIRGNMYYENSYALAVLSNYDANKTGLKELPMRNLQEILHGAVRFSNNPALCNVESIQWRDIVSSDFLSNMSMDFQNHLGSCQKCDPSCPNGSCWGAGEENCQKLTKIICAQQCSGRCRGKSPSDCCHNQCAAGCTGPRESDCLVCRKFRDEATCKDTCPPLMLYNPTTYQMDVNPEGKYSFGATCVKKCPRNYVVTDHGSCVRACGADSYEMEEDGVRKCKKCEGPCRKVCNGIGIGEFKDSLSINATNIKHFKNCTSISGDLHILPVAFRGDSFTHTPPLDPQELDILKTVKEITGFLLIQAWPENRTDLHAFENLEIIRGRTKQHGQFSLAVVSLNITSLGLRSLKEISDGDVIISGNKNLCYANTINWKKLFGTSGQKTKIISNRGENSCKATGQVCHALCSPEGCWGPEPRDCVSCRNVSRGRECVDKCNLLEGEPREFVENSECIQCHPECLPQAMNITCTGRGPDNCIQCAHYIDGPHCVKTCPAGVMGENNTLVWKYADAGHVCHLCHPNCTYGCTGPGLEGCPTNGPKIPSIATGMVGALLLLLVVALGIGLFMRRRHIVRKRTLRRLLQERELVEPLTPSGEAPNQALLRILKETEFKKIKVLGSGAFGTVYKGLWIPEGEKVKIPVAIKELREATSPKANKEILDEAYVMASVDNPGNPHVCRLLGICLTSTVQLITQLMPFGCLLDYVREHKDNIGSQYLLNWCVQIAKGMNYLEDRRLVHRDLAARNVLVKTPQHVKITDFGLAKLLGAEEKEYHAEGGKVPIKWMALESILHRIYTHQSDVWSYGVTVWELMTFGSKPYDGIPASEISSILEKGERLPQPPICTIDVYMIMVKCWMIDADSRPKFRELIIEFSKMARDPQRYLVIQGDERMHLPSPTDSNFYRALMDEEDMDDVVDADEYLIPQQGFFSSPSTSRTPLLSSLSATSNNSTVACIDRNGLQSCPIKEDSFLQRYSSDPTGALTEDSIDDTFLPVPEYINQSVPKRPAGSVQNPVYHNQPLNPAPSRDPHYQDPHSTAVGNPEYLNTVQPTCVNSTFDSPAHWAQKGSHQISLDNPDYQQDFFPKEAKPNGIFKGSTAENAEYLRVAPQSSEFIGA
T3 sequence (P00533 with tags, fused parts or gaps INS769ASV): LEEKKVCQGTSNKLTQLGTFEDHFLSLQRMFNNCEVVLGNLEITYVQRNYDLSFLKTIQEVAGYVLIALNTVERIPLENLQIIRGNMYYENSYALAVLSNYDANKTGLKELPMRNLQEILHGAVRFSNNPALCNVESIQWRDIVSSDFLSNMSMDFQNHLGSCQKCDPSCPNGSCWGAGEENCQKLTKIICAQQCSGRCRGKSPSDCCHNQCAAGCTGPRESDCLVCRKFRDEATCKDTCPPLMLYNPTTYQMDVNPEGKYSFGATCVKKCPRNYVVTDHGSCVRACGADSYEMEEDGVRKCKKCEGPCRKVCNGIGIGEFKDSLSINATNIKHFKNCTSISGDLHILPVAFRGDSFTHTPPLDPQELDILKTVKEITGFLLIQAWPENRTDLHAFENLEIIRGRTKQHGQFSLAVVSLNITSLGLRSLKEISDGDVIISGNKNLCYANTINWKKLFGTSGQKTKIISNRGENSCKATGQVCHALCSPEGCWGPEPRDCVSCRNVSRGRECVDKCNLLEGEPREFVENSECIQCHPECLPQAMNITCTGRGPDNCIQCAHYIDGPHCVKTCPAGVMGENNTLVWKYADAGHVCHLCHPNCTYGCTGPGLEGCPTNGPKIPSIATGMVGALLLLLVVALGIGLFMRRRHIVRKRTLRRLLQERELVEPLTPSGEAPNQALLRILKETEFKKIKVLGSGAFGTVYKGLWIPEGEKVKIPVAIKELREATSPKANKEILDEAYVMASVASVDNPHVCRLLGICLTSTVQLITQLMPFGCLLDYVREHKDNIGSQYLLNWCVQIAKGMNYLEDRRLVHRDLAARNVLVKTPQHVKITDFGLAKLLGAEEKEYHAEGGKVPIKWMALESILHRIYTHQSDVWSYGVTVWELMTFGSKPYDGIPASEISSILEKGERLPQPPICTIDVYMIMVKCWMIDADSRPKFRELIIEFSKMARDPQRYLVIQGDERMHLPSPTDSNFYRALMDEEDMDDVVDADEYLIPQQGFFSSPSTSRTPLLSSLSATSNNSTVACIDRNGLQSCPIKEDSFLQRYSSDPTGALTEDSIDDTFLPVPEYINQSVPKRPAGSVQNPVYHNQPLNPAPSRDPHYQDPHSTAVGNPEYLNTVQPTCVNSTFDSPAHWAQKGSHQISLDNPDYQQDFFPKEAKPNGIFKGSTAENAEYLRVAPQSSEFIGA

Row | IC50 [2] | IC50 [3] | IC50 [4] | SMILES | EGFR exon 19 deletion and exon 20 T790M mutation IC50 [1]
1 | 100 to 500 nM | 100 to 500 nM | < 100 nM | C=CC(=O)Nc1cc(Nc2ncc(F)c(-c3cn4c5c(cccc35)CCC4)n2)c(OC)cc1N(C)CCN(C)C [Example 17, N-(5-((4-(5,6-dihydro-4H-pyrrolo[3,2,1-ij]quinolin-1-yl)-5-fluoropyrimidin-2-yl)amino)-2-((2-(dimethylamino)ethyl)(methyl)amino)-4-methoxyphenyl)acrylamide] | A (IC50 value for the indicated mutant below about 100 nM)
2 | 100 to 500 nM | < 100 nM | < 100 nM | C=CC(=O)Nc1cc(Nc2ncc(Cl)c(-c3cn4c5c(cccc35)OCC4)n2)c(OC)cc1N(C)CC1CCCN1C (centres unmarked) [Example 8, N-(5-((5-chloro-4-(2,3-dihydro-[1,4]oxazino[2,3,4-hi]indol-6-yl)pyrimidin-2-yl)amino)-4-methoxy-2-(methyl((1-methylpyrrolidin-2-yl)methyl)amino)phenyl)acrylamide] | A (IC50 value for the indicated mutant below about 100 nM)
3 | > 1000 nM | 500 to 1000 nM | 100 to 500 nM | COc1cc(F)c(NC(=O)/C=C/CN(C)C)cc1Nc1ncc(Cl)c(-c2cn3c4c(cccc24)OCC3)n1 [Example 82, (E)-N-(5-((5-chloro-4-(2,3-dihydro-[1,4]oxazino[2,3,4-hi]indol-6-yl)pyrimidin-2-yl)amino)-2-fluoro-4-methoxyphenyl)-4-(dimethylamino)but-2-enamide] | A (IC50 value for the indicated mutant below about 100 nM)
4 | 100 to 500 nM | < 100 nM | < 100 nM | C=CC(=O)Nc1cc(Nc2ncc(OCC(C)O)c(-c3cn4c5c(cccc35)CCC4)n2)c(OC)cc1N(C)CCN(C)C (centres unmarked) [Example 51, N-(5-((4-(5,6-dihydro-4H-pyrrolo[3,2,1-ij]quinolin-1-yl)-5-(2-hydroxypropoxy)pyrimidin-2-yl)amino)-2-((2-(dimethylamino)ethyl)(methyl)amino)-4-methoxyphenyl)acrylamide] | A (IC50 value for the indicated mutant below about 100 nM)
5 | 100 to 500 nM | < 100 nM | < 100 nM | C=CC(=O)Nc1cc(Nc2ncc(C#N)c(-c3cn4c5c(cccc35)CCC4)n2)c(OC)cc1N1CC[C@@H](N(C)C)C1 [Example 15, (R)-N-(5-((5-cyano-4-(5,6-dihydro-4H-pyrrolo[3,2,1-ij]quinolin-1-yl)pyrimidin-2-yl)amino)-2-(3-(dimethylamino)pyrrolidin-1-yl)-4-methoxyphenyl)acrylamide] | A (IC50 value for the indicated mutant below about 100 nM)
6 | 500 to 1000 nM | 100 to 500 nM | 100 to 500 nM | C=CC(=O)Nc1cc(Nc2ncc(N3CCCC3)c(-c3cn4c5c(cccc35)CCC4)n2)c(OC)cc1N(C)CCN(C)C [Example 106] | A (IC50 value for the indicated mutant below about 100 nM)
7 | 100 to 500 nM | < 100 nM | < 100 nM | C=CC(=O)Nc1cc(Nc2ncc(NC(=O)CC)c(-c3cn4c5c(cccc35)CCC4)n2)c(OC)cc1N(C)CCN(C)C [Example 91] | A (IC50 value for the indicated mutant below about 100 nM)
8 | 100 to 500 nM | < 100 nM | < 100 nM | C=CC(=O)Nc1cc(Nc2ncc(OCC(F)F)c(-c3cn4c5c(cccc35)CCC4)n2)c(OC)cc1N(C)CCN(C)C [Example 95] | A (IC50 value for the indicated mutant below about 100 nM)
9 | 100 to 500 nM | < 100 nM | < 100 nM | C=CC(=O)Nc1cc(Nc2nccc(-c3c(N4CC[C@@H](O)C4)n4c5c(cccc35)CCC4)n2)c(OC)cc1N(C)CCN(C)C [Example 74, (R)-N-(2-((2-(dimethylamino)ethyl)-(methyl)amino)-5-((4-(2-(3-hydroxypyrrolidin-1-yl)-5,6-dihydro-4H-pyrrolo[3,2,1-ij]quinolin-1-yl)pyrimidin-2-yl)amino)-4-methoxyphenyl)-acrylamide] | A (IC50 value for the indicated mutant below about 100 nM)
10 | > 1000 nM | 100 to 500 nM | < 100 nM | C=CC(=O)Nc1cc(Nc2ncc(-c3ncccn3)c(-c3cn4c5c(cccc35)CCC4)n2)c(OC)cc1N(C)CCN(C)C [Example 108] | B (IC50 value for the indicated mutant between about 100 to about 500 nM)
11 | < 100 nM | < 100 nM | < 100 nM | C=CC(=O)Nc1cc(Nc2nccc(-c3c(N4CC[C@H](O)C4)n4c5c(cccc35)CCC4)n2)c(OC)cc1N(C)CCN(C)C [Example 75] | A (IC50 value for the indicated mutant below about 100 nM)
12 | < 100 nM | < 100 nM | < 100 nM | C=CC(=O)Nc1cc(Nc2ncc(C#N)c(-c3cn4c5c(cccc35)N(C)C(=O)C4)n2)c(OC)cc1N(C)CCN(C)C [Example 52, N-(5-((5-cyano-4-(1-methyl-2-oxo-2,3-dihydro-1H-pyrrolo[1,2,3-de]quinoxalin-6-yl)pyrimidin-2-yl)amino)-2-((2-(dimethylamino)ethyl)(methyl)amino)-4-methoxyphenyl)acrylamide] | A (IC50 value for the indicated mutant below about 100 nM)
13 | 100 to 500 nM | < 100 nM | < 100 nM | C=CC(=O)Nc1cc(Nc2ncc(OCCOC)c(-c3cn4c5c(cccc35)CCC4)n2)c(OC)cc1N(C)CCN(C)C [Example 104] | A (IC50 value for the indicated mutant below about 100 nM)
14 | < 100 nM | < 100 nM | < 100 nM | C=CC(=O)Nc1cc(Nc2ncc(-c3cnn(C)c3)c(-c3cn4c5c(cccc35)CCC4)n2)c(OC)cc1N(C)CCN(C)C [Example 49, N-(5-((4-(5,6-dihydro-4H-pyrrolo[3,2,1-ij]quinolin-1-yl)-5-(1-methyl-1H-pyrazol-4-yl)pyrimidin-2-yl)amino)-2-((2-(dimethylamino)ethyl)(methyl)amino)-4-methoxyphenyl)acrylamide] | A (IC50 value for the indicated mutant below about 100 nM)
15 | 500 to 1000 nM | 100 to 500 nM | < 100 nM | C=CC(=O)Nc1cc(Nc2nccc(-c3c(-c4ncco4)n4c5c(cccc35)CCC4)n2)c(OC)cc1N(C)CCN(C)C [Example 63, N-(2-((2-(dimethylamino)ethyl)(methyl)amino)-4-methoxy-5-((4-(2-(oxazol-2-yl)-5,6-dihydro-4H-pyrrolo[3,2,1-ij]quinolin-1-yl)pyrimidin-2-yl)amino)phenyl)acrylamide] | A (IC50 value for the indicated mutant below about 100 nM)
16 | 100 to 500 nM | < 100 nM | < 100 nM | C=CC(=O)Nc1cc(Nc2ncc(SCCO)c(-c3cn4c5c(cccc35)CCC4)n2)c(OC)cc1N(C)CCN(C)C [Example 58, N-(5-((4-(5,6-dihydro-4H-pyrrolo[3,2,1-ij]quinolin-1-yl)-5-((2-hydroxyethyl)thio)pyrimidin-2-yl)amino)-2-((2-(dimethylamino)ethyl)(methyl)amino)-4-methoxyphenyl)acrylamide] | A (IC50 value for the indicated mutant below about 100 nM)
17 | < 100 nM | < 100 nM | < 100 nM | C=CC(=O)Nc1cc(Nc2ncc(-c3ccnn3C)c(-c3cn4c5c(cccc35)CCC4)n2)c(OC)cc1N(C)CCN(C)C [Example 53, N-(5-((4-(5,6-dihydro-4H-pyrrolo[3,2,1-ij]quinolin-1-yl)-5-(1-methyl-1H-pyrazol-5-yl)pyrimidin-2-yl)amino)-2-((2-(dimethylamino)ethyl)(methyl)amino)-4-methoxyphenyl)acrylamide] | A (IC50 value for the indicated mutant below about 100 nM)
